Values quoted from earlier work in US8409610B2, “Wound care device” (Coloplast A/S, priority 2003, dated 2013).

Details: reported values, given as examples

SMILES | minimum plasma concentration for obtaining systemic effect [µg/mL]
CC(=O)Oc1ccccc1C(=O)O [Acetylsalicylic acid] | 270
CC(C)Cc1ccc(C(C)C(=O)O)cc1 (stereo not shown) [Ibuprofen] | 10
CC(C(=O)O)c1cccc(C(=O)c2ccccc2)c1 (stereo not shown) [Ketoprofen] | 3
CN1C(C(=O)Nc2ccccn2)=C(O)c2ccccc2S1(=O)=O [Piroxicam] | 1
